Test results taken from paper PMC3663906 (Journal of medicinal chemistry, 2013).

Tests used:
[1] = tested on: endocytosis of transferrin in T. brucei; details: cited from earlier work
HepG2 cells = assay: HepG2 cell toxicity assay; assay type: cell-based; details: Homo sapiens, HepG2, read-out: HepG2 IC50, MTT cytotoxicity, Tables 5 and 6
[2] = tested on: endocytosis of transferrin in T. brucei; assay: Receptor-mediated endocytosis of transferrin in the trypanosome
[3] = Mouse oral pharmacokinetic study; assay type: in vivo
T. brucei [4] = assay: Trypanosome cell cycle analysis
T. brucei brucei CA427 = assay: Mouse model of HAT
T. brucei [5] = details: cited from earlier work

CS(=O)(=O)CCNCc1ccc(-c2ccc3ncnc(Nc4ccc(OCc5cccc(F)c5)c(Cl)c4)c3c2)o1 [Compound 1, lapatinib]
effect on endocytosis of transferrin in the trypanosome [1]: inhibited endocytosis of transferrin

O=S(=O)(c1cccc(-c2ccc3ncnc(Nc4ccc(OCc5cccc(F)c5)c(Cl)c4)c3c2)c1)N1CCOCC1 [Compound 10k, N-(3-chloro-4-((3-fluorobenzyl)oxy)phenyl)-6-(3-(morpholinosulfonyl)phenyl)quinazolin-4-amine]
IC50 (HepG2 cells): > 20 µM

O=S(=O)(c1ccc(-c2ccc3ncnc(Nc4ccc(OCc5cccc(F)c5)c(Cl)c4)c3c2)cc1)N1CCCCC1 [Compound 10l, N-(3-chloro-4-((3-fluorobenzyl)oxy)phenyl)-6-(4-(piperidin-1-ylsulfonyl)phenyl)quinazolin-4-amine]
IC50 (HepG2 cells): > 20 µM

O=S(=O)(c1cccc(-c2ccc3ncnc(Nc4ccc(OCc5cccc(F)c5)c(Cl)c4)c3c2)c1)N1CCCCC1 [Compound 10m, N-(3-chloro-4-((3-fluorobenzyl)oxy)phenyl)-6-(3-(piperidin-1-ylsulfonyl)phenyl)quinazolin-4-amine]
IC50 (HepG2 cells): > 20 µM

Fc1cccc(COc2ccc(Nc3ncnc4ccc(-c5cccc(N6CCOCC6)c5)cc34)cc2Cl)c1 [Compound 23a, N-(3-chloro-4-((3-fluorobenzyl)oxy)phenyl)-6-(3-morpholinophenyl)quinazolin-4-amine]
effect on receptor-mediated endocytosis of transferrin [2]: no effect
oral bioavailability [3]: orally bioavailable
effect on the cell cycle (T. brucei [4]): blocks duplication of the kinetoplast and arrests cytokinesis, without inhibiting division of the trypanosome nucleus
fraction of cells containing two nuclei and one kinetoplast (1K2N) (T. brucei [4]; DAPI microscopy): selectively increased
number of cells containing one nucleus (1K1N, 1Ke1N) (T. brucei [4]; DAPI microscopy): reduced
survival on day 8 (all untreated mice had died) (T. brucei brucei CA427; 10 mg/kg twice per day i.p.): all alive
survival (T. brucei brucei CA427; 10 mg/kg twice per day oral): died in the same time frame as control mice
toxicity in multi-day regimen (T. brucei brucei CA427; mouse, 40 mg/kg dose once per day): drug-related toxicity was observed

C=CC(=O)Nc1cc2c(Nc3ccc(F)c(Cl)c3)ncnc2cc1OCCCN1CCOCC1 [canertinib]
EC50 for killing T. brucei (T. brucei [5]): low micromolar range
